Like-named read-outs stand apart in the source and are kept apart here.
Tests used:
[1] = test system: SKBr3 (estrogen receptor negative, Her2 over-expressing breast cancer cells); test: Anti-proliferation assay (MTS/PMS, 72 h), SKBr3; type: cell-based
Description: (§1) Cells were maintained in a 1:1 mixture of Advanced DMEM/F12 (Gibco) supplemented with non-essential amino acids, L-glutamine (2 mM), streptomycin (500 μg/mL), penicillin (100 units/mL), and 10% FBS. Cells were grown to confluence in a humidified atmosphere (37° C., 5% CO2), seeded (2000/well, 100 μL) in 96-well plates, and allowed to attach overnight. Compound at varying concentrations in DMSO (1% DMSO final concentration) was added, and cells were returned to the incubator for 72 h. At 72 h, the number of viable cells was determined using an MTS/PMS cell proliferation kit (Promega) per the manufacturer's instructions. Cells incubated in 1% DMSO were used at 100% proliferation, and values were adjusted accordingly. IC50 values were calculated from separate experiments performed in triplicate using GraphPad Prism.
(§2) The anti-proliferative activity of these compounds is evaluated against two breast cancer cell lines, SKBr3 (estrogen receptor negative, Her2 over-expressing breast cancer cells) and MCF-7 (estrogen receptor positive breast cancer cells).

[2] = test system: MCF-7 (estrogen receptor positive breast cancer cells); test: Anti-proliferation assay (MTS/PMS, 72 h), MCF-7; type: cell-based
Description: as §1, §2

[3] = Table 3, cycloamine analogues, read-out: SKBr3
[4] = Table 3, cycloamine analogues, read-out: MCF-7
[5] = Table 9, non-aryl ureas, Breast Cancer, read-out: IC50 SKBr3
[6] = Table 9, non-aryl ureas, Breast Cancer, read-out: IC50 MCF-3
[7] = Homo sapiens, SK-BR-3, Table 8, biphenyl ureas, Breast Cancer, read-out: IC50 SKBr3
[8] = Homo sapiens, MCF7, Table 8, biphenyl ureas, Breast Cancer, read-out: IC50 MCF-3
[9] = Homo sapiens, MCF7, Table 1, modified benzamide coumarin derivatives, read-out: MCF-7
[10] = Homo sapiens, MCF7, Table 2, modified benzamide and biphenylamide derivatives (in μM), read-out: MCF-7
[11] = Table 10, modified initial novobiocin analogs, read-out: SkBr3, IC50
[12] = Homo sapiens, SK-BR-3, Table 1, modified benzamide coumarin derivatives, read-out: SKBr3
[13] = Homo sapiens, SK-BR-3, Table 2, modified benzamide and biphenylamide derivatives (in μM), read-out: SKBr3
[14] = Homo sapiens, SK-BR-3, Table 4, alkylamino analogues, read-out: SKBr3
[15] = Homo sapiens, MCF7, Table 4, alkylamino analogues, read-out: MCF-7

CC(=O)Oc1ccc(C(=O)Nc2cc3ccc(OCC4CCCN(C)C4)c(C)c3oc2=O)cc1CC=C(C)C (stereo not drawn)
IC50 [1, 3]: 0.74 ± 0.01 µM | IC50 [2, 4]: 1.65 ± 0.11 µM

CC(=O)Oc1ccc(C(=O)Nc2cc3ccc(OCC4CCN(C)C4)c(C)c3oc2=O)cc1CC=C(C)C (stereo not drawn)
IC50 [1, 3]: 0.88 ± 0.09 µM | IC50 [2, 4]: 1.88 ± 0.45 µM

CC(=O)Oc1ccc(C(=O)Nc2cc3ccc(OCCC4CCCCN4)c(C)c3oc2=O)cc1CC=C(C)C (stereo not drawn)
IC50 [1, 3]: 0.64 ± 0.06 µM | IC50 [2, 4]: 0.71 ± 0.03 µM

CC(=O)Oc1ccc(C(=O)Nc2cc3ccc(OCC4CCCNC4)c(C)c3oc2=O)cc1CC=C(C)C (stereo not drawn)
IC50 [1, 3]: 0.62 ± 0.04 µM | IC50 [2, 4]: 0.82 ± 0.07 µM

CC(C)=CCc1cc(C(=O)Nc2cc3ccc(OCCC4CCCCN4)c(C)c3oc2=O)ccc1O (stereo not drawn)
IC50 [1, 3]: 0.64 ± 0.06 µM | IC50 [2, 4]: 0.71 ± 0.03 µM

CC(C)=CCc1cc(C(=O)Nc2cc3ccc(OCC4CCCN(C)C4)c(C)c3oc2=O)ccc1O (stereo not drawn)
IC50 [1, 3]: 1.3 ± 0.63 µM | IC50 [2, 4]: 2.64 ± 0.45 µM

CC(C)=CCc1cc(C(=O)Nc2cc3ccc(OCC4CCCNC4)c(C)c3oc2=O)ccc1O (stereo not drawn)
IC50 [1, 3]: 0.6 ± 0.01 µM | IC50 [2, 4]: 0.79 ± 0.1 µM

CC(C)=CCc1cc(C(=O)Nc2cc3ccc(OCC4CCN(C)C4)c(C)c3oc2=O)ccc1O (stereo not drawn)
IC50 [1, 3]: 0.92 ± 0.56 µM | IC50 [2, 4]: 1.55 ± 0.04 µM

CC(C)=CCc1cc(C(=O)Nc2cc3ccc(OCCCN4CCNCC4)c(C)c3oc2=O)ccc1O
IC50 [1, 3]: 0.82 ± 0.02 µM | IC50 [2, 4]: 0.93 ± 0.21 µM

Cc1c(OC2CCN(C)CC2)ccc2cc(NC(=O)NCc3ccc(Cl)cc3)c(=O)oc12
IC50 [1, 5]: 1.04 ± 0.07 µM | IC50 [2, 6]: 1.05 ± 0.07 µM

COc1ccc(CNC(=O)Nc2cc3ccc(OC4CCN(C)CC4)c(C)c3oc2=O)cc1
IC50 [1, 5]: 0.68 ± 0.06 µM | IC50 [2, 6]: 0.65 ± 0.11 µM

Cc1ccc(CNC(=O)Nc2cc3ccc(OC4CCN(C)CC4)c(C)c3oc2=O)cc1
IC50 [1, 5]: 0.56 ± 0.07 µM | IC50 [2, 6]: 0.55 ± 0.02 µM

Cc1c(OC2CCN(C)CC2)ccc2cc(NC(=O)NCc3ccc(Oc4ccccc4)cc3)c(=O)oc12
IC50 [1, 5]: 0.23 ± 0.08 µM | IC50 [2, 6]: 0.38 ± 0.04 µM

Cc1ccc(NC(=O)Nc2cc3ccc(OC4CCN(C)CC4)c(C)c3oc2=O)cc1-c1cccc(Cl)c1 [CH3, Cl, 1-(3′-chloro-6-methyl-[1,1′-biphenyl]-3-yl)-3-(8-methyl-7-((1-methylpiperidin-4-yl)oxy)-2-oxo-2H-chromen-3-yl)urea]
IC50 [1, 7]: 0.44 µM | IC50 [2, 8]: 0.5 µM

COc1cccc(-c2cc(NC(=O)Nc3cc4ccc(OC5CCN(C)CC5)c(C)c4oc3=O)ccc2C)c1 [CH3, OMe, 1-(3′-methoxy-6-methyl-[1,1′-biphenyl]-3-yl)-3-(8-methyl-7-((1-methylpiperidin-4-yl)oxy)-2-oxo-2H-chromen-3-yl)urea]
IC50 [1, 7]: 0.25 µM | IC50 [2, 8]: 0.21 µM

CC(C)=CCc1cc(C(=O)Nc2cc3ccc(OC4CCN(C)CC4)c(C)c3oc2=O)ccc1O [Compound 2]
IC50 [2, 9]: 1.09 ± 0.1 µM | IC50 [2, 10]: 1.09 ± 0.1 µM | IC50 ([2]; Homo sapiens, MCF7, amide versus urea linkage, read-out: IC50 for MCF-3): 1.09 µM

Cc1c(OC2CCN(C)CC2)ccc2cc(NC(=O)Nc3ccc(Cl)cc3)c(=O)oc12 [Compound 8]
IC50 [1, 11]: 0.17 ± 0.01 µM

Cc1ccc(NC(=O)Nc2cc3ccc(OC4CCN(C)CC4)c(C)c3oc2=O)cc1C [Compound 10]
IC50 [1, 11]: 0.31 ± 0.09 µM

Cc1c(OCCC2CCCCN2)ccc2cc(NC(=O)Nc3ccc(Cl)cc3)c(=O)oc12 (stereo not drawn) [Compound 11]
IC50 [1, 11]: 0.21 ± 0.06 µM

COc1ccc(C(=O)Nc2cc3ccc(OC4CCN(C)CC4)c(C)c3oc2=O)cc1CC=C(C)C [Compound 16, 4-methoxy-N-(8-methyl-7-(1-methylpiperidin-4-yloxy)-2-oxo-2H-chromen-3-yl)-3-(3-methylbut-2-enyl)benzamide]
IC50 [1, 12]: 1.41 ± 0.2 µM | IC50 [2, 9]: 1.58 ± 0.09 µM

CCCCOc1ccc(C(=O)Nc2cc3ccc(OC4CCN(C)CC4)c(C)c3oc2=O)cc1CC=C(C)C [Compound 17, 4-butoxy-N-(8-methyl-7-(1-methylpiperidin-4-yloxy)-2-oxo-2H-chromen-3-yl)-3-(3-methylbut-2-enyl)benzamide]
IC50 [1, 12]: 1.4 ± 0.07 µM | IC50 [2, 9]: 1.44 ± 0.05 µM

C#CCOc1ccc(C(=O)Nc2cc3ccc(OC4CCN(C)CC4)c(C)c3oc2=O)cc1CC=C(C)C [Compound 18, N-(8-methyl-7-(1-methylpiperidin-4-yloxy)-2-oxo-2H-chromen-3-yl)-3-(3-methylbut-2-enyl)-4-(prop-2-ynyloxy)benzamide]
IC50 [1, 12]: 1.4 ± 0.11 µM | IC50 [2, 9]: 1.12 ± 0.16 µM

CC(C)=CCc1cc(C(=O)Nc2cc3ccc(OC4CCN(C)CC4)c(C)c3oc2=O)ccc1OCCN(C)C [Compound 23, 4-(2-(dimethylamino)ethoxy)-N-(8-methyl-7-(1-methylpiperidin-4-yloxy)-2-oxo-2H-chromen-3-yl)-3-(3-methylbut-2-enyl)benzamide]
IC50 [1, 13]: 0.33 µM | IC50 [2, 10]: 0.72 ± 0.08 µM

CC(C)=CCc1cc(C(=O)Nc2cc3ccc(OC4CCN(C)CC4)c(C)c3oc2=O)ccc1OCCCN(C)C [Compound 24, 4-(3-(dimethylamino)propoxy)-N-(8-methyl-7-(1-methylpiperidin-4-yloxy)-2-oxo-2H-chromen-3-yl)-3-(3-methylbut-2-enyl)benzamide]
IC50 [1, 13]: 0.25 ± 0.02 µM | IC50 [2, 10]: 0.46 ± 0.05 µM

CC(C)=CCc1cc(C(=O)Nc2cc3ccc(OC4CCN(C)CC4)c(C)c3oc2=O)ccc1OC1CCN(C)CC1 [Compound 25, N-(8-methyl-7-(1-methylpiperidin-4-yloxy)-2-oxo-2H-chromen-3-yl)-3-(3-methylbut-2-enyl)-4-(1-methylpiperidin-4-yloxy)benzamide]
IC50 [1, 13]: 0.21 µM | IC50 [2, 10]: 0.47 ± 0.081 µM

CCNCCCOc1ccc2cc(NC(=O)c3ccc(O)c(CC=C(C)C)c3)c(=O)oc2c1C [Compound 68a, N-(7-(3-(ethylamino)propoxy)-8-methyl-2-oxo-2H-chromen-3-yl)-4-hydroxy-3-(3-methylbut-2-en-1-yl)benzamide]
IC50 [1, 14]: 0.72 ± 0.34 µM | IC50 [2, 15]: 0.98 ± 0.35 µM

CCN(C)CCCOc1ccc2cc(NC(=O)c3ccc(O)c(CC=C(C)C)c3)c(=O)oc2c1C [Compound 68b, N-(7-(3-(ethyl(methyl)amino)propoxy)-8-methyl-2-oxo-2H-chromen-3-yl)-4-hydroxy-3-(3-methylbut-2-en-1-yl)benzamide]
IC50 [1, 14]: 0.73 ± 0.06 µM | IC50 [2, 15]: 2.19 ± 0.5 µM

CCN(CC)CCCOc1ccc2cc(NC(=O)c3ccc(O)c(CC=C(C)C)c3)c(=O)oc2c1C [Compound 68c]
IC50 ([1]; Table 4, alkylamino analogues, read-out: SKBr3): 4.9 ± 0.42 µM | IC50 ([2]; Table 4, alkylamino analogues, read-out: MCF-7): 6.39 ± 0.04 µM

CCCNCCCOc1ccc2cc(NC(=O)c3ccc(O)c(CC=C(C)C)c3)c(=O)oc2c1C [Compound 68d, 4-hydroxy-N-(8-methyl-2-oxo-7-(3-(propylamino)propoxy)-2H-chromen-3-yl)-3-(3-methylbut-2-en-1-yl)benzamide]
IC50 [1, 14]: 0.99 ± 0.03 µM | IC50 [2, 15]: 0.98 µM

CC(C)=CCc1cc(C(=O)Nc2cc3ccc(OCCCNCC(C)C)c(C)c3oc2=O)ccc1O [Compound 68f, 4-hydroxy-N-(7-(3-(isobutylamino)propoxy)-8-methyl-2-oxo-2H-chromen-3-yl)-3-(3-methylbut-2-en-1-yl)benzamide]
IC50 [1, 14]: 1.03 ± 0.02 µM | IC50 [2, 15]: 1.32 ± 0.06 µM

CC(C)=CCc1cc(C(=O)Nc2cc3ccc(OCCCNC(C)C)c(C)c3oc2=O)ccc1O [Compound 68g, 4-hydroxy-N-(7-(3-(isopropylamino)propoxy)-8-methyl-2-oxo-2H-chromen-3-yl)-3-(3-methylbut-2-en-1-yl)benzamide]
IC50 [1, 14]: 0.75 ± 0.26 µM | IC50 [2, 15]: 0.74 ± 0.16 µM

CC(C)=CCc1cc(C(=O)Nc2cc3ccc(OCCCN(C)C(C)C)c(C)c3oc2=O)ccc1O [Compound 68h, 4-hydroxy-N-(7-(3-(isopropyl(methyl)amino)propoxy)-8-methyl-2-oxo-2H-chromen-3-yl)-3-(3-methylbut-2-en-1-yl)benzamide]
IC50 [1, 14]: 0.57 ± 0.13 µM | IC50 [2, 15]: 1.05 ± 0.06 µM

CC(C)=CCc1cc(C(=O)Nc2cc3ccc(OCCCN(C(C)C)C(C)C)c(C)c3oc2=O)ccc1O [Compound 68i, N-(7-(3-(diisopropylamino)propoxy)-8-methyl-2-oxo-2H-chromen-3-yl)-4-hydroxy-3-(3-methylbut-2-en-1-yl)benzamide]
IC50 [1, 14]: 1.6 ± 0.02 µM | IC50 [2, 15]: 1.31 ± 0.39 µM

CC(C)=CCc1cc(C(=O)Nc2cc3ccc(OCCCNC(C)(C)C)c(C)c3oc2=O)ccc1O [Compound 68j, N-(7-(3-(tert-butylamino)propoxy)-8-methyl-2-oxo-2H-chromen-3-yl)-4-hydroxy-3-(3-methylbut-2-en-1-yl)benzamide]
IC50 [1, 14]: 0.66 ± 0.06 µM | IC50 [2, 15]: 0.95 ± 0.1 µM

CC(C)=CCc1cc(C(=O)Nc2cc3ccc(OCCCN(C)C(C)(C)C)c(C)c3oc2=O)ccc1O [Compound 68k, N-(7-(3-(tert-butyl(methyl)amino)propoxy)-8-methyl-2-oxo-2H-chromen-3-yl)-4-hydroxy-3-(3-methylbut-2-en-1-yl)benzamide]
IC50 [1, 14]: 0.88 ± 0.1 µM | IC50 [2, 15]: 1.14 ± 0.11 µM

CC(C)=CCc1cc(C(=O)Nc2cc3ccc(OC4CCN(C)CC4)c(C)c3oc2=O)ccc1O [drawing 134]
IC50 [2, 4]: 1.09 ± 0.1 µM

Reference: US10030006B2, “Coumarin based Hsp90 inhibitors with urea and ether substituents” (University of Kansas, priority 2013, dated 2018)
